Measured values as given in the supplement of paper PMC10307832.

What was measured:
Assay in all cases: relative viability (nuclei count vs DMSO), 5 days (fraction); higher = more cells survive
PAC-1 + Vorinostat = compound: C=CCc1cccc(/C=N/NC(=O)CN2CCN(Cc3ccccc3)CC2)c1O [PAC-1] + O=C(CCCCCCC(=O)Nc1ccccc1)NO [Vorinostat] (partner 1 µM)
Method in brief: (§1)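 Lung cancer cell lines were seeded in 1536-well plates and dosed by pin tool the next day, with either a single drug or a fixed anchor-drug dose combined with five library-drug doses (not always all listed) spaced in √10 steps. Five days later, one step fixed the cells and stained their nuclei (final 0.05% Triton X-100, 1% formaldehyde, 1 ug/ml Hoechst), and nuclei were counted on 4× images. Relative viability is the nuclei count in treated wells divided by the count in vehicle wells, and each value is the median of duplicate plates.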

Ibrutinib + Vorinostat = compound: C=CC(=O)N1CCC[C@@H](n2nc(-c3ccc(Oc4ccccc4)cc3)c3c(N)ncnc32)C1 [Ibrutinib] + O=C(CCCCCCC(=O)Nc1ccccc1)NO [Vorinostat] (partner 1 µM)
Method in brief: as §1

BMX-IN-1 + Vorinostat = compound: C=CC(=O)Nc1cc(-n2c(=O)ccc3cnc4ccc(-c5ccc(NS(C)(=O)=O)cc5)cc4c32)ccc1C [BMX-IN-1] + O=C(CCCCCCC(=O)Nc1ccccc1)NO [Vorinostat] (partner 1 µM)
Method in brief: as §1

PAC-1 + Olaparib = compound: C=CCc1cccc(/C=N/NC(=O)CN2CCN(Cc3ccccc3)CC2)c1O [PAC-1] + O=C(c1cc(Cc2n[nH]c(=O)c3ccccc23)ccc1F)N1CCN(C(=O)C2CC2)CC1 [Olaparib] (partner 8 µM)
Method in brief: as §1

| Cell Line | relative viability (PAC-1 + Vorinostat; first compound 0.02 µM) | relative viability (PAC-1 + Vorinostat; first compound 0.06325 µM) | relative viability (PAC-1 + Vorinostat; first compound 0.2 µM) | relative viability (PAC-1 + Vorinostat; first compound 2 µM) | relative viability (Ibrutinib + Vorinostat; first compound 0.005 µM) | relative viability (Ibrutinib + Vorinostat; first compound 0.01581 µM) | relative viability (Ibrutinib + Vorinostat; first compound 0.05 µM) | relative viability (Ibrutinib + Vorinostat; first compound 0.1581 µM) | relative viability (Ibrutinib + Vorinostat; first compound 0.5 µM) | relative viability (BMX-IN-1 + Vorinostat; first compound 0.02 µM) | relative viability (BMX-IN-1 + Vorinostat; first compound 0.2 µM) | relative viability (BMX-IN-1 + Vorinostat; first compound 0.6325 µM) | relative viability (BMX-IN-1 + Vorinostat; first compound 2 µM) | relative viability (PAC-1 + Olaparib; first compound 0.02 µM) | relative viability (PAC-1 + Olaparib; first compound 0.06325 µM) | relative viability (PAC-1 + Olaparib; first compound 0.2 µM) | relative viability (PAC-1 + Olaparib; first compound 2 µM) |
| --- | --- | --- | --- | --- | --- | --- | --- | --- | --- | --- | --- | --- | --- | --- | --- | --- | --- |
| NCI-H2009 | 0.669 | 0.685 | 0.732 | 0.741 | 0.728 | 0.705 | 0.764 | 0.759 | 0.742 | 0.782 | 0.798 | 0.746 | 0.839 | 0.681 | 0.655 | 0.677 | 0.652 |
| NCI-H2023 | 0.741 | 0.605 | 0.495 | 0.474 | 0.565 | 0.6 | 0.48 | 0.918 | 0.49 | 0.726 | 0.742 | 0.654 | 0.105 | 0.468 | 0.425 | 0.449 | 0.257 |
| NCI-H2085 | 0.791 | 0.789 | 0.737 | 0.822 | 0.85 | 0.708 | 0.74 | 0.62 | 0.695 | 0.816 | 0.771 | 0.821 | 0.831 | 0.728 | 0.74 | 0.74 | 0.831 |
| NCI-H2087 | 0.678 | 0.665 | 0.722 | 0.858 | 0.97 | 0.745 | 0.385 |  | 0.538 | 0.66 | 1.12 | 0.837 | 0.575 | 0.53 | 0.504 | 0.579 | 0.451 |
| NCI-H2126 | 0.733 | 0.785 | 0.803 | 0.763 | 0.454 | 0.748 | 0.644 | 0.725 | 0.56 | 0.829 | 0.697 | 0.864 | 0.786 | 0.896 | 0.871 | 0.941 | 0.886 |
| NCI-H2170 | 0.894 | 0.809 | 0.795 | 0.775 | 0.703 | 0.656 | 0.396 | 0.831 | 0.181 | 0.724 | 1.06 | 0.79 | 0.849 | 0.557 | 0.632 | 0.562 | 0.542 |
| NCI-H2228 | 0.699 | 0.932 | 0.546 | 0.504 | 0.696 | 0.486 | 0.569 | 0.502 | 0.648 | 0.938 | 0.884 | 0.531 | 0.561 | 0.619 | 0.607 | 0.619 | 0.646 |
| NCI-H2342 | 0.733 | 0.659 | 0.802 | 0.739 | 0.495 | 0.783 | 0.754 | 0.76 | 0.731 | 0.827 | 0.728 | 0.71 | 0.65 | 0.442 | 0.474 | 0.367 | 0.525 |
| NCI-H2347 | 0.589 | 0.593 | 0.606 | 0.657 | 0.59 | 0.546 | 0.566 | 0.493 | 0.53 | 0.725 | 0.716 | 0.586 | 0.596 | 0.544 | 0.622 | 0.551 | 0.515 |
| NCI-H2405 | 1.05 | 1.12 | 1.14 | 1.15 | 0.913 | 1.12 |  |  | 1.03 | 1.05 | 1.13 | 1.16 | 0.955 | 0.879 | 0.894 | 0.922 | 0.94 |
| NCI-H3122 | 1.01 | 0.972 | 0.787 | 0.83 | 1.05 | 0.944 | 0.874 | 0.858 | 1.06 | 0.938 | 1.1 | 0.902 | 1.14 | 0.635 | 0.634 | 0.624 | 0.566 |
| PC-3 [JPC-3] | 0.82 | 0.915 | 1.06 | 0.832 | 0.664 | 0.774 | 0.497 | 0.289 | 0.399 | 0.953 | 0.831 | 0.916 | 0.766 | 1.04 | 1.15 | 1.1 | 1.09 |
| PC-14 | 0.816 | 0.764 | 0.629 | 0.743 | 0.723 | 0.662 | 0.611 | 0.944 | 0.324 | 0.863 | 0.86 | 1.01 | 0.0519 | 0.255 | 0.275 | 0.288 | 0.298 |
| RERF-LC-KJ | 0.715 | 0.67 | 0.475 | 0.711 | 0.631 | 0.703 | 0.593 | 0.668 | 0.659 | 0.77 | 0.734 | 0.824 | 0.45 | 0.891 | 0.86 | 0.929 | 0.83 |
| SK-LU-1 | 0.742 | 0.846 | 0.757 | 0.855 | 0.883 | 0.715 | 0.765 | 0.813 | 0.766 | 0.719 | 0.969 | 0.797 | 0.69 | 0.405 | 0.465 | 0.455 | 0.414 |
| SW 900 |  | 0.41 | 0.494 | 0.553 | 0.343 | 0.43 | 0.488 | 0.4 | 0.527 | 0.659 | 0.548 | 0.678 | 0.47 |  | 1.07 | 0.85 | 0.718 |
| SW 1573 | 0.693 | 0.649 | 0.571 | 0.861 |  | 0.793 | 0.694 | 1.06 | 1.06 | 0.845 | 0.98 | 0.709 | 0.0976 | 0.446 | 0.426 | 0.442 | 0.41 |
| UMC-11 | 0.36 | 0.41 | 0.349 | 0.513 | 0.39 | 0.376 | 0.454 | 0.345 |  | 0.343 | 0.417 | 0.336 | 0.332 | 0.411 | 0.366 | 0.366 | 0.377 |
